Test results reported in patent US8173360B2, “Cell death inhibitor” (Takeda Pharmaceutical Company Limited, priority 2002, dated 2012).

Experiments:
[1] = tested on: primary cardiomyocytes derived from rat neonates; test: Inhibition of serum depletion-induced myocardial cell death (WST-8 viable cell count); assay type: cell-based; details: serum depletion, 4 days, WST-8 viable cell count
Source text: Neonates (within one day after birth) were obtained from pregnant Wistar rats purchased from Charles River Japan, Inc. and anesthetized with ether. After sterilization with 70% ethanol, the heart was removed with forceps. After washing with phosphate buffered saline (manufactured by Takara Co., Ltd., T900), the heart removed was minced with surgical scissors. The pieces of tissue were washed 4 or 5 times with phosphate buffered saline to remove most of non-cardiomyocytes derived from blood. To the pieces of tissue corresponding to 10 neonates, 5 ml of an enzyme solution [which is a solution of trypsin (1.25 mg) (manufactured by Difco) and collagenase (0.25 mg) (manufactured by Sigma) in phosphate buffer (1 ml)] was added. The mixture was stirred for 15 minutes with a stirrer while maintaining at 37° C. After 2.5 ml of the enzyme solution was replenished, the mixture was stirred for further 15 minutes, and this procedure was repeated twice. Subsequently, Medium 199 (manufactured by Gibco) containing 10% fetal cow serum (manufactured Biowicker, Inc.) was added to the mixture in a half volume of the enzyme solution to terminate the enzymatic reaction. After filtering through a cell strainer (manufactured by Falcon), the mixture was centrifuged at 400×g for 5 minutes to collect the cells.
The cells were then recovered, filtered through a cell strainer and centrifuged at 400×g for 5 minutes to collect primary cardiomyocytes derived from rat neonates.
Next, the primary cardiomyocytes derived from rat neonates (corresponding 10 neonates) were suspended in 2 ml of a hypotonic solution [solution obtained by dissolving NH4Cl (8.29 g), KHCO3 (1.0 g) and EDTA/2Na (ethylenediaminetetraacetic acid disodium; manufactured by Dojin Chemical Laboratory) (37 mg) in water (1 L)]. The suspension was allowed to stand for 3 minutes to disrupt erythrocytes. To the suspension 10 ml of Medium 199 containing 10% fetal cow serum was added, and the mixture was centrifuged at 400×g for 5 minutes to collect the primary cardiomyocytes derived from rat neonates. […] An aliquot of the cardiomyocytes suspension obtained was taken out and 0.3% trypan blue was added thereto. The mixture was gently stirred and the count of cardiomyocytes was counted with a hemocytometer.
Incubation was continued for further 4 days to induce cell death. […]
The mean value (±SD) in the minimum effective concentration of Compound 1 required for inhibiting the cell death was 0.015±0.011 μM. The concentration of Compound 1 required for increasing the mean cell count by 30% when compared to the cell count without the addition of Compound 1 was determined to be the minimum effective concentration. […]

[2] = tested on: Human normal articular chondrocytes; test: Inhibitory activity against cell death of human articular chondrocytes induced by NO (MTT); assay type: cell-based; details: 100 μM; 1.5 mM sodium nitroprusside 5 hours; mean ±SD
Protocol: Human normal articular chondrocytes (Clonetics, Inc.) were proliferated in a growth medium for articular chondrocytes (CGM, Clonetics, Inc.) in monolayer culture. Then, the cells were suspended in 1.2% alginate-containing 155 mM NaCl solution in a density of 2.0×10^6 cells/ml, and beads having a 2 mm diameter were prepared using a syringe with a 22 gauge needle. The beads were incubated in a differentiation medium for articular chondrocytes (CDM, Clonetics, Inc.) charged in a 96-well round-bottomed plate (1 bead/well, manufactured by FALCON) for further 7 days. The medium was replaced by α-modified minimum essential medium containing Compound 1 (0.1 μM or 1 μM) and 10% fetal cow serum, followed by incubation for 48 hours and then for 5 hours in the co-presence of 1.5 mM sodium nitroprusside (NO generator, manufactured by Sigma). As control drugs, caspase 3 inhibitor (Z-DEVD-FMK (SEQ ID NO: 5), 100 μM, manufactured by R & D Systems, Inc.) and caspase 9 inhibitor (Z-LEHD-FMK (SEQ ID NO: 6), 100 μM, manufactured by R & D Systems, Inc.) were similarly monitored for their activities. After completion of the experiment, alginate was removed and the cell survival rate was determined by the MTT technique.
In the table, the numerical values indicate mean values (±SD) of the cell death inhibition rates as converted from the measurement data by the MTT technique. The cell survival rate after the addition of 1.5 mM sodium nitroprusside (without addition of either Compound 1 or control drug) was 31.9%.

rat MIF = biological target: T1, rat MIF (Rattus norvegicus, UniProt P30904); test: Binding to immobilized rat MIF by surface plasmon resonance (BIACORE 3000); details: 10 μM in PBS, rat MIF immobilized on sensor chip CM5
T1 construct: the region encoding MIF was amplified from the complementary DNA (cDNA) library of rat and mouse brains; made in house; host or cells: Escherichia coli BL21 (DE3)
Protocol: The binding of rat MIF obtained in REFERENCE EXAMPLE 6 to Compound 1 obtained in REFERENCE EXAMPLE 1 was analyzed using BIACORE 3000 (manufactured by Biacore).
Rat MIF was immobilized on a sensor chip CM5 (manufactured by Biacore). Then, phosphate buffered saline (PBS) containing 10 μM of Compound 1 was flown over the sensor chip and changes in the surface plasmon resonance signal were monitored as the binding of the compound to rat MIF.
Rat MIF obtained in REFERENCE EXAMPLE 6 was immobilized on a sensor chip CM5 (manufactured by Biacore Co., Ltd.). Thereafter, phosphate buffered saline (PBS) containing 10 μM of 3-[2-(4-oxo-4H-1,3-benzothiazin-2-yl)-4-pyridyl]propionic acid (the compound of EXAMPLE 308 described in WO 03/020719) was flown over the sensor chip and changes in surface plasmon resonance signal were monitored as the binding of the compound to rat MIF.

Compound	myocardial cell death inhibitory activity [1]	Cell Death Inhibition Rate [2]	other results
C=CC1=C(C)c2cc3[n-]c(cc4[n-]c(cc5nc(cc1n2)C(C)=C5C=C)c(C)c4CCC(=O)O)c(CCC(=O)O)c3C.O.[Fe+2] [hematin, reference compound]	exhibit the activity of inhibiting myocardial cell death	–	–
Z-DEVD-FMK [reference compound]	–	49.7 ± 10.3	–
Z-LEHD-FMK (Z N-cap, FMK C-terminus) [reference compound]	–	62.7 ± 10.6	–
hemin [reference compound]	exhibit the activity of inhibiting myocardial cell death	–	–
O=C(O)CCc1ccnc(-c2nc(=O)c3ccccc3s2)c1 [3-[2-(4-oxo-4H-1,3-benzothiazin-2-yl)-4-pyridyl]propionic acid]	–	–	binding of the compound to rat MIF (changes in surface plasmon resonance signal) (rat MIF): could be selected as the substance binding to MIF
